Entries after “also recorded” stand apart in the source; their conditions may differ.

The subject of data set [1] is rice leaf lamina. More on the design: method as in PMID 11674612. To be noted: all doses studied; cited from earlier work.
Data set [2] concerns T-lymphoblastic leukemia CEM. On the set-up: method as in PMID 17869317. To be noted: CEM cells; positive control; cited from earlier work.
Data set [3] has as its system Arabidopsis thaliana L. (Columbia ecotype, Col-0) seedlings. Description: Arabidopsis root sensitivity bioassay. Type of data set: in vivo. Particulars: for root length, mean: 7-day-old seedlings.
Data set [4] is described as follows: Calcein AM cytotoxicity assay, CEM. The class given is cell-based. Particulars: human, CEM T-lymphoblastic leukemia cells, IC50 > 50 µM means inactive, read-out: Cytotoxic activity IC50.
Data set [5] is described as follows: Calcein AM cytotoxicity assay, MCF7. Type of data set: cell-based. Particulars: human, MCF7 breast carcinoma cells (estrogen-sensitive), MCF7, 72 h, IC50 > 50 µM means inactive, read-out: Cytotoxic activity IC50.
Data set [6] is described as follows: Calcein AM cytotoxicity assay, HeLa. Particulars: human, HeLa cervical carcinoma cells, IC50 > 50 µM means inactive, read-out: Cytotoxic activity IC50. Type of data set: cell-based.
Data set [7] is described as follows: Calcein AM cytotoxicity assay, BJ. Type of data set: cell-based. Particulars: human, BJ foreskin fibroblasts (normal cell line), IC50 > 50 µM means inactive, read-out: Cytotoxic activity IC50.
Setting [8] is: 100 nM (only selected compounds), control 14.61 ± 0.85.

Regarding 25-azabrassinolide, in data set [1], the “biological activity in rice lamina inclination” value was “completely inactive; also recorded: no biological activity”.

As to `CCC(C(C)C)C(O)C(O)C(C)C1CCC2C3CC(=O)C4CC(O)C(O)CC4(C)C3CCC12C` (centres unmarked) [28-Homocastasterone], in data set [2], the 50% inhibitory concentration (IC50) – broadly, the concentration that inhibits the measured activity by half – was 13 µM.

Regarding `C[C@H](CN(C)C)[C@H]1CC[C@H]2[C@@H]3CC(=O)[C@H]4C[C@H](O)[C@H](O)C[C@]4(C)[C@H]3CC[C@]12C` [15a, (20S)-20-(N,N-dimethylaminomethyl)-2α,3α-dihydroxy-5α-pregnane-6-one], the melting point – broadly, the temperature, or range, at which the solid turns liquid – was 219 to 221 °C. Besides, the “root length, mean” value in data set [3] (0.1 nM, control 16.3 ± 1.21) worked out at 14.83 mm. Further, the “root length, mean” value in data set [3] (1 nM, control 16.3 ± 1.21) was found to be 14.29 mm. In addition, the “root length, mean” value in data set [3] (10 nM, control 16.3 ± 1.21) was found to be 14.34 mm. The IC50 at 72 h in data set [4] is greater than 50 µM. In addition, in data set [5], the IC50 at 72 h was greater than 50 µM. In addition, in data set [6], the IC50 at 72 h is greater than 50 µM. For the same compound, the IC50 at 72 h in data set [7] is greater than 50 µM.

Consider `C[C@H]([C@@H](O)[C@H](O)C(=O)N1CCCC1)[C@H]1CC[C@H]2[C@@H]3CC(=O)[C@H]4C[C@H](O)[C@H](O)C[C@]4(C)[C@H]3CC[C@]12C` [20c, 1-((20S,22R,23S)-2α,3α,22,23-tetrahydroxy-6-oxo-5α-cholan-24-oyl)pyrrolidine], for which the melting point is > 200 °C (dec.). For the same compound, in data set [3] (0.1 nM, control 16.3 ± 1.21), the “root length, mean” value was found to be 15.97 mm. Further, the “root length, mean” value in data set [3] (1 nM, control 16.3 ± 1.21) was 15.81 mm. The “root length, mean” value in data set [3] (10 nM, control 16.3 ± 1.21) is listed as 15.15 mm. The “root length, mean” value in data set [3] (setting [8]) was found to be 14.873 mm. For the same compound, the “inhibitory effect on Arabidopsis root growth” value in data set [3] (tested 0.1 to 10 nM, selected derivatives also 100 nM) is on record as “weak inhibitory effect”. Also, in data set [4], the concentration for half-maximal inhibition (IC50) at 72 h was greater than 50 µM. The IC50 at 72 h in data set [5] was greater than 50 µM. Further, in data set [6], the IC50 at 72 h was greater than 50 µM. Besides, in data set [7], the IC50 at 72 h is greater than 50 µM.

Regarding `C[C@H](C(=O)N1CCCCC1)[C@H]1CC[C@H]2[C@@H]3CC(=O)[C@H]4C[C@H](O)[C@H](O)C[C@]4(C)[C@H]3CC[C@]12C` [8d, 1-((20S)-2α,3α-dihydroxy-6-oxo-5α-pregnane-20-carbonyl)piperidine], the melting point is > 230 °C (dec.). The “root length, mean” value in data set [3] (0.1 nM, control 16.3 ± 1.21) turned out to be 17.11 mm. Moreover, the “root length, mean” value in data set [3] (1 nM, control 16.3 ± 1.21) was 15.97 mm. Also, the “root length, mean” value in data set [3] (10 nM, control 16.3 ± 1.21) is 14.18 mm. Also, the IC50 at 72 h in data set [4] is greater than 50 µM. The half-inhibitory concentration (IC50) at 72 h in data set [5] is greater than 50 µM. Also, the IC50 at 72 h in data set [6] was greater than 50 µM. The IC50 at 72 h in data set [7] is greater than 50 µM.

For the compound `CCN(CC)C[C@@H](C)[C@H]1CC[C@H]2[C@@H]3CC(=O)[C@H]4C[C@H](O)[C@H](O)C[C@]4(C)[C@H]3CC[C@]12C` [15b, (20S)-20-(N,N-diethylaminomethyl)-2α,3α-dihydroxy-5α-pregnane-6-one], the melting point was > 190 °C (dec.). For the same compound, the “root length, mean” value in data set [3] (0.1 nM, control 16.3 ± 1.21) worked out at 14.93 mm. Moreover, in data set [3] (1 nM, control 16.3 ± 1.21), the “root length, mean” value is on record as 16.13 mm. In addition, the “root length, mean” value in data set [3] (10 nM, control 16.3 ± 1.21) is 14.67 mm. Moreover, the “root length, mean” value in data set [3] (setting [8]) is reported as 13.903 mm. The IC50 at 72 h in data set [4] is greater than 50 µM. Also, the IC50 at 72 h in data set [5] was greater than 50 µM. The IC50 at 72 h in data set [6] is greater than 50 µM. Moreover, the IC50 at 72 h in data set [7] is greater than 50 µM.

Take `C[C@H]([C@@H](O)[C@@H](O)CN1CCCC1)[C@H]1CC[C@H]2[C@@H]3CC(=O)[C@H]4C[C@H](O)[C@H](O)C[C@]4(C)[C@H]3CC[C@]12C.Cl` [22c, 1-((20S,22R,23S)-2α,3α,22,23-tetrahydroxy-6-oxo-5α-cholan-24-yl)pyrrolidinium chloride]: the melting point was > 250 °C (dec.). Also, the “root length, mean” value in data set [3] (0.1 nM, control 16.3 ± 1.21) is 15.97 mm. Moreover, the “root length, mean” value in data set [3] (1 nM, control 16.3 ± 1.21) came out at 14.83 mm. The “root length, mean” value in data set [3] (10 nM, control 16.3 ± 1.21) is given as 15.81 mm. Further, in data set [4], the IC50 at 72 h is greater than 50 µM. In addition, the IC50 at 72 h in data set [5] was greater than 50 µM. In data set [6], the IC50 at 72 h was greater than 50 µM. The IC50 at 72 h in data set [7] is greater than 50 µM.

Take `C[C@H]([C@@H](O)[C@H](O)C(=O)N1CCCCC1)[C@H]1CC[C@H]2[C@@H]3CC(=O)[C@H]4C[C@H](O)[C@H](O)C[C@]4(C)[C@H]3CC[C@]12C` [20d, 1-((20S,22R,23S)-2α,3α,22,23-tetrahydroxy-6-oxo-5α-cholan-24-oyl)piperidine]: the melting point was > 200 °C (dec.). Besides, in data set [3] (0.1 nM, control 16.3 ± 1.21), the “root length, mean” value was 14.37 mm. In addition, in data set [3] (1 nM, control 16.3 ± 1.21), the “root length, mean” value is on record as 14.50 mm. Also, in data set [3] (10 nM, control 16.3 ± 1.21), the “root length, mean” value is recorded as 14.51 mm. The IC50 at 72 h in data set [4] is greater than 50 µM. The IC50 at 72 h in data set [5] is greater than 50 µM. Besides, in data set [6], the IC50 at 72 h was greater than 50 µM. The IC50 at 72 h in data set [7] was greater than 50 µM.

Source of the values: PMC7795425, “Synthesis and Biological Activity of Brassinosteroid Analogues with a Nitrogen-Containing Side Chain” (International Journal of Molecular Sciences, 2020).
